Assay type in all cases: in vivo
Test [1] concerns rice sheath blight fungi (Rhizoctonia solami). The test is described as follows: Greenhouse pot test, rice sheath blight. On the procedure: (§1) The compounds provided by the present disclosure and some control compounds were tested by the same methods in the Test example 1, except that the effective concentrations of the compounds in this Test example are shown in Table 2.
In addition, the test method for rice sheath blight as following steps:
The potted rice seedling with uniform growth was selected, and dried in the shade for 24 h after spray treatment, then inoculated 3 blocks of 0.25 cm^2 rice sheath blight fungi (Rhizoctonia solami) at the base of seedling by clamp inoculation bacterium block method. The test materials inoculated were moved into greenhouse (temperature: lighting 28° C., dark 25° C., relative humidity 95%), after 7 days, investigate 5 leaves of per block treatment, the grading investigation was carried out according to the disease incidence condition of sheaths and leaves of rice, “Guidelines for the field efficacy trials of pesticides” was adopted as the grading standard, the disease index was calculated according to the grading standard, and the control effect in a unit of % was calculated according to disease index.

Test [2] deals with cucumber powdery mildew. The experiment in a line: Greenhouse pot test, cucumber powdery mildew. To be noted: for pest or weed control at 6.25 µg/mL / pest or weed control at 25 µg/mL / pest or weed control at 100 µg/mL: Cucumis sativus, 192 h, read-out: Control effect (%) Cucumber powdery mildew. On the procedure:
(§2) Test method: each of the test compounds in Table 1 was dispensed to 5 wt % emulsifiable concentrate (hereinafter referred to as 5% EC). The greenhouse pot test was used in each experiment, and the effective concentrations of each compound were illustrated in Table 1.
Cucumber powdery mildew: cucumber seedling in a true leaf period with uniform growth was selected, and dried in the shade for 24 h after spray treatment. Fresh cucumber powdery mildew spores on the cucumber leaves were collected and washed, and filtered through a double gauze to prepare a spores suspension with concentration of about 100,000/mL, then spray inoculation was applied. The test materials inoculated were moved into a greenhouse (lighting 21-23° C.), after 8 days, the grading investigation was carried out according to the disease incidence condition of blank control, and the control effect in a unit of % was calculated according to disease index.
(§3) The investigation method: “Guidelines for the field efficacy trials of pesticides” was adopted as the grading standard, and the control effect in a unit of % was calculated based on the disease index. Disease index=Σ(number of diseased leaves at each grade×relative grade value)×100/(total number of leaves×9); Control effect (%)=(disease index of control−disease index of treated)×100/disease index of control;
as §1

Test [3] concerns wheat powdery mildew (Erysiphe graminis). The test is described as follows: Greenhouse pot test, wheat powdery mildew. Conditions: Blumeria graminis, 168 h, read-out: Control effect (%) Wheat powdery mildew; for pest or weed control at 6.25 µg/mL: 6.25 mg/L; for pest or weed control at 25 µg/mL: 25 mg/L; for pest or weed control at 100 µg/mL: 100 mg/L; for pest or weed control at 1.5625 µg/mL: 1.5625 mg/L; for pest or weed control at 3.125 µg/mL: 3.1250 mg/L.
Text: as §2
Wheat powdery mildew: two-leaf stage potted wheat seedling with uniform growth was selected and made foliar spray treatment with 5% EC, the blank control sprayed with clean water was additionally arranged, three replicates were carried out. After 24 h, the leaves of the host plants were inoculated by shake-down method with sporangial suspensions of the fungi wheat powdery mildew (Erysiphe graminis), the plants were stored in a greenhouse (25±1° C.). After 7 days, the screening results were investigated according to the disease incidence condition of blank control.
as §3, §1

For test [4], the system named is corn rust (Puccinia sorghi). The experiment in a line: Greenhouse pot test, corn rust. Conditions: Puccinia sorghi, 168 h, read-out: Control effect (%) Corn rust; for pest or weed control at 6.25 µg/mL: 6.25 mg/L; for pest or weed control at 25 µg/mL: 25 mg/L; for pest or weed control at 100 µg/mL: 100 mg/L; for pest or weed control at 1.5625 µg/mL: 1.5625 mg/L; for pest or weed control at 3.125 µg/mL: 3.1250 mg/L. The method, then: as §2
Corn rust: two-three leaf stage potted corn seedling with uniform growth was selected and made foliar spray treatment with 5% EC, the blank control sprayed with clean water was additionally arranged, three replicates were carried out. After 24 h, the leaves of the host plants were inoculated with sporangial suspensions of the fungi corn rust (Puccinia sorghi), the plants were stored in humidity chamber (temperature: lighting 25° C., dark 20° C., relative humidity 95-100%) and then transferred to greenhouse (25±1° C.) 24 h after infection. After 7 days, the screening results were investigated according to the disease incidence condition of blank control.
as §3, §1

In test [5] the test system is soybean rust (Phakopsora pacchyrhizi Sydow). The test is described as follows: Greenhouse pot test, soybean rust. To be noted: Glycine max, 168 h, read-out: Control effect (%) Soybean rust; for pest or weed control at 6.25 µg/mL: 6.25 mg/L; for pest or weed control at 25 µg/mL: 25 mg/L; for pest or weed control at 100 µg/mL: 100 mg/L; for pest or weed control at 1.5625 µg/mL: 1.5625 mg/L; for pest or weed control at 3.125 µg/mL: 3.1250 mg/L. The method, then:
as §2
Soybean rust: two-leaf stage potted soybean seedling with uniform growth was selected and made foliar spray treatment with 5% EC, the blank control sprayed with clean water was additionally arranged, three replicates were carried out. After 24 h, the leaves of the host plants were inoculated with sporangial suspensions of the fungi soybean rust (Phakopsora pacchyrhizi Sydow), the plants were stored in humidity chamber (temperature 20-25° C., relative humidity>95%) and then transferred to greenhouse (25±1° C.) 8-16 h after infection. After 7 days, the screening results were investigated according to the disease incidence condition of blank control.
as §3, §1

From patent publication US11548855B2, “Pyrazole amide compound and application thereof, and fungicide” (Shandong United Pesticide Industry Co. Ltd., priority 2017, dated 2023) come the findings set out here.

Like-named read-outs stand apart in the source and are kept apart here.

Regarding `Fc1ccc([C@]2(Cn3cncn3)O[C@H]2c2ccccc2Cl)cc1` (racemic) [Epoxiconazole], the “Control effect (%) Rice sheath blight” value came out at 30% in test [1] (0.625 mg/L), 70% in test [1] (2.5 mg/L) and 100% in test [1] (10 mg/L).
Take `Cn1nc(C(F)F)c(C(=O)Nc2ccccc2Oc2ccc(C(F)(F)F)cc2Br)c1F` [Compound 2]: the pest or weed control at 6.25 µg/mL in test [2] (greenhouse pot, 6.25 mg/L) was 45%; in test [3], 70%; in test [4] it was 98%; in test [5], 96%. Besides, the pest or weed control at 25 µg/mL in test [2] (greenhouse pot, 25 mg/L) amounted to 55%; in test [3] it was 75%; in test [4], 100%; in test [5], 100%. Moreover, the pest or weed control at 100 µg/mL came to 88% in test [2] (greenhouse pot, 100 mg/L); 85% in test [3]; 100% in test [4]; 100% in test [5].
For `Cn1nc(C(F)F)c(C(=O)Nc2ccccc2Oc2ccc(C(F)(F)F)cc2I)c1F` [Compound 3], the pest or weed control at 6.25 µg/mL came out at 45% in test [2] (greenhouse pot, 6.25 mg/L); 65% in test [3]; 75% in test [4]; 85% in test [5]. Besides, the pest or weed control at 25 µg/mL came to 70% in test [2] (greenhouse pot, 25 mg/L); 80% in test [3]; 100% in test [4]; 100% in test [5]. Moreover, the pest or weed control at 100 µg/mL in test [2] (greenhouse pot, 100 mg/L) came out at 95%; in test [3], 80%; in test [4] it was 100%; in test [5], 100%.
For `Cn1cc(C(=O)Nc2ccccc2Oc2cc(C(F)(F)F)ccc2C(F)(F)F)c(C(F)F)n1` [Compound 5], the pest or weed control at 6.25 µg/mL in test [3] is 10%; in test [4] it was 70%; in test [5] it was 95%. Further, the pest or weed control at 25 µg/mL in test [3] is 40%; in test [4] it was 75%; in test [5], 98%. Also, the pest or weed control at 100 µg/mL in test [3] is 50%; in test [4], 85%; in test [5], 100%.
In the case of `Cn1nc(C(F)F)c(C(=O)Nc2ccccc2Oc2ccc(C(F)(F)F)cc2C(F)(F)F)c1F` [Compound 6], the pest or weed control at 6.25 µg/mL was determined as 50% in test [2] (greenhouse pot, 6.25 mg/L); 85% in test [3]; 98% in test [4]; 90% in test [5]. Further, the pest or weed control at 25 µg/mL in test [2] (greenhouse pot, 25 mg/L) came out at 75%; in test [3], 90%; in test [4], 100%; in test [5], 100%. The pest or weed control at 100 µg/mL worked out at 98% in test [2] (greenhouse pot, 100 mg/L); 92% in test [3]; 100% in test [4]; 100% in test [5].
As for `Cn1cc(C(=O)Nc2ccccc2Oc2ccc(Cl)cc2Cl)c(C(F)F)n1` [Compound 7], the pest or weed control at 6.25 µg/mL in test [2] (greenhouse pot, 6.25 mg/L) came out at 30%; in test [3], 60%; in test [4] it was 90%; in test [5], 96%. In addition, the pest or weed control at 25 µg/mL in test [2] (greenhouse pot, 25 mg/L) was found to be 60%; in test [3], 75%; in test [4] it was 95%; in test [5], 98%. Further, the pest or weed control at 100 µg/mL is 89% in test [2] (greenhouse pot, 100 mg/L); 90% in test [3]; 100% in test [4]; 100% in test [5]. Also, the pest or weed control at 1.5625 µg/mL in test [3] stood at 0%; in test [4], 50%; in test [5], 90%. In addition, the pest or weed control at 3.125 µg/mL in test [3] came to 50%; in test [4] it was 60%; in test [5], 100%.
Regarding `Cn1cc(C(=O)Nc2ccccc2Oc2ccc(C(F)(F)F)cc2Cl)c(C(F)F)n1` [Compound 8], the pest or weed control at 6.25 µg/mL was determined as 40% in test [2] (greenhouse pot, 6.25 mg/L); 65% in test [3]; 95% in test [4]; 99% in test [5]. Further, the pest or weed control at 25 µg/mL was determined as 60% in test [2] (greenhouse pot, 25 mg/L); 75% in test [3]; 99% in test [4]; 100% in test [5]. Moreover, the pest or weed control at 100 µg/mL was 95% in test [2] (greenhouse pot, 100 mg/L); 94% in test [3]; 100% in test [4]; 100% in test [5]. Besides, the pest or weed control at 1.5625 µg/mL in test [3] is 70%; in test [4], 85%; in test [5], 98%. Also, the figures for the pest or weed control at 3.125 µg/mL in test [3], in test [4] and in test [5] were 90%, 98% and 100%, respectively.
In the case of `CC1COC(Cn2cncn2)(c2ccc(Oc3ccc(Cl)cc3)cc2Cl)O1` (stereo not drawn) [Difenoconazole], in test [2] (greenhouse pot, 100 mg/L), the pest or weed control at 100 µg/mL came to 80%.
As for `CCCCc1c(C)nc(NCC)[nH]c1=O` [Ethirimol], the pest or weed control at 100 µg/mL in test [2] was 100%.
With `Cn1cc(C(=O)Nc2ccccc2-c2cc(F)c(F)c(F)c2)c(C(F)F)n1` [Fluxapyroxad], the “Control effect (%) Cucumber powdery mildew” value in test [2] (greenhouse pot, 1.5625 mg/L) is given as 55%; in test [2] (greenhouse pot, 6.25 mg/L) it was 95%; in test [2] (greenhouse pot, 25 mg/L), 100%; in test [2] (greenhouse pot, 100 mg/L), 100%.
